3 molecules from US20240270743A1, “TETRAHYDROPYRAZOLOPYRIDINE-ANALOG LIGANDS OF NLRX1 AND USES THEREOF” (LANDOS BIOPHARMA, INC., priority 2021, published 2024) can be followed below.

One test has as its system CD4+ T cells. The test is described as follows: Immunological screening in vitro in CD4+ T cells (flow cytometry). The settings on record: 100 nanomolar, 24 h, anti-CD3/CD28, PMA and ionomycin last 6 h; for production of TNFα / percentage of TNFα+ CD4+ T cells: relative to vehicle control (FIG. 3A); for production of IFNγ / percentage of IFNγ+ CD4+ T cells: relative to vehicle control (FIG. 3B). The format is cell-based, C57BL/6 mice. An excerpt:
Cell culture. Spleens were excised from C57BL/6 mice. Spleens were crushed between the frosted ends of microscope slides and filtered to provide a cellular suspension. Red blood cells were lysed through hypotonic lysis. Remaining cells were washed and filtered. CD4+ T cells were enriched within the suspension using magnetic sorting based negative selection. Cells were collected and plated within 96 well plates coated with anti-CD3/CD28 and cultured in the presence of LABP-72-4, LABP-72-38, LABP-72-56, LABP-72-69 at 0 or 100 nanomolar for 24 h. During the last 6 h of culture, cells were stimulated with phorbol 12-myristate-13-acetate (PMA) and ionomycin.
Immunological analysis. Cells were collected from 96 well plates and stained with a cocktail of antibodies for immunophenotyping by flow cytometry. Culture supernatant was collected and assayed for cytokine concentrations by cytometric bead array. Data was captured on a BD FACS Celesta and analyzed using FACSDiva.

Test [1] relates to bleomycin mouse model of pulmonary fibrosis. The test is described as follows: Bleomycin-induced model of pulmonary fibrosis. The format is in vivo, C57BL/6 mice. The conditions noted are these: 50 mg/kg once daily oral gavage from day 7, lungs 2 weeks after bleomycin. As for the experimental part:
Bleomycin model. C57BL/6 mice were anesthetized by isoflurane and intratracheally administered 1 mg/kg bleomycin at day 0. LABP-72-38 was prepared within a 0.5% methylcellulose (12-15 cP) solution. Dosage used was 50 mg/kg delivered once daily, by oral gavage beginning 7 days after bleomycin challenge. Lungs were collected 2 weeks after bleomycin challenge.
Flow Cytometry. Lungs were collected into RPMI/FBS buffer containing collagenase (300U/mL) and DNase (50U/mL) for digestion. Tissues were digested for 45 minutes under stirring at 37° C. Resultant cellular suspensions were filtered through 100 μm strainers, and centrifuged (300× g, 8 min). Red blood cells were lysed from the cellular suspensions. Cells were filtered and washed in fresh RPMI. Cells were labeled with mixtures of extracellular (CD45, CD3, CD4, CD8, CD19, NK1.1, F4/80, CD11b, Gr1) and intracellular (IL21) antibodies in a sequential live staining in 96-well plates. Data was acquired using a FACS Celesta flow cytometer with FACSDiva software.

Test [2] concerns OVA-induced model of asthma. The experiment in a line: OVA-induced model of asthma. The conditions noted are these: 50 mg/kg daily by oral gavage, days 14-17, day 18. Format: in vivo, BALB/c mice. As for the experimental part: OVA-induced model. BALB/c mice were immunized with 10 μg of ovalbumin (OVA) in aluminum hydroxide gel by intraperitoneal injection on day 0 and 7 of the experiment. Mice were then exposed to OVA (8% w/v) by aerosolization for 25 minutes daily between days 14 and 17. Treatment with LABP-72-38 (50 mg/kg) or vehicle control occurred daily between days 14 and 17 by oral gavage. An unchallenged negative control group was included for comparison. Dosage was calculated based off mean body weights. Immunological analysis. Lungs were collected on day 18 (OVA) or day 27 (HDM). Lung tissue was minced and digested in RPMI supplemented with FBS, HEPES, and calcium chloride containing 300 U/mL collagenase and 50 U/mL DNase for 45 minutes at 37° C. After filtration, red blood cells were lysed. Cells were labeled with mixtures of extracellular (CD45, CD3, CD4, CD8, MHCII, CD11b, CD11c, SiglecF, Ly6C, Ly6G) antibodies in a sequential live staining in 96-well plates in preparation for flow cytometry. Data was captured on a BD FACS Celesta and analyzed using FACSDiva.

The test system of test [3] is high fat diet induced obesity model. The experiment in a line: High fat diet-induced model of obesity. The settings on record: 10 mg/kg daily oral gavage for 4 weeks. Format: in vivo, C57BL6 mice. The procedure:
Mouse model. C57BL6 mice were challenged with 16 weeks of high fat feeding by ad libitum exposure to rodent diet chow containing 60% kcal from fat. After 12 weeks of challenge, mice were treated daily with LABP-72-38 at 10 mg/kg for 4 weeks. Treatment was delivered by oral gavage. Mice were weighed weekly. Blood glucose levels were measured by glucometer on blood collected from the tail vein. After 16 weeks of diet, livers were excised and weighed. Weights were normalized to the total body weight.

Test [4] concerns house dust mite model of asthma. The test is described as follows: House dust mite (HDM)-induced model of asthma. Format: in vivo, BALB/c mice. The settings on record: 20 mg/kg daily intranasal, 3 weeks of house dust mite challenge. As for the experimental part:
HDM-induced model. BALB/c mice were sensitized to house dust mite with 25 μg administered daily by intranasal instillation for five days. Challenge with house dust mite (25 μg/d) occurred for 5 consecutive days for the following three weeks. Treatment with LABP-72-38 (20 mg/kg) or vehicle control occurred daily during this three-week period. An unchallenged negative control group was included for comparison. Immunological analysis. Lungs were collected on day 18 (OVA) or day 27 (HDM). Lung tissue was minced and digested in RPMI supplemented with FBS, HEPES, and calcium chloride containing 300 U/mL collagenase and 50 U/mL DNase for 45 minutes at 37° C. After filtration, red blood cells were lysed. Cells were labeled with mixtures of extracellular (CD45, CD3, CD4, CD8, MHCII, CD11b, CD11c, SiglecF, Ly6C, Ly6G) antibodies in a sequential live staining in 96-well plates in preparation for flow cytometry. Data was captured on a BD FACS Celesta and analyzed using FACSDiva.

Turning to `O=C(O)Cc1ccc(N2CCc3c(cnn3-c3cc(F)cc(F)c3)C2=O)cn1` [LABP-72-69, 2-(5-(1-(3,5-difluorophenyl)-4-oxo-1,4,6,7-tetrahydro-5H-pyrazolo[4,3-c]pyridin-5-yl)pyridin-2-yl)acetic acid], in the test on CD4+ T cells, the “production of TNFα / percentage of TNFα+ CD4+ T cells” value is reported as “significantly reducing” and the “production of IFNγ / percentage of IFNγ+ CD4+ T cells” value is on record as “significantly reducing”.

For the molecule `O=C(O)Cc1cncc(N2CCc3nn(-c4cc(F)cc(F)c4)cc3C2=O)c1` [LABP-72-38, 2-(5-(2-(3,5-difluorophenyl)-4-oxo-2,4,6,7-tetrahydro-5H-pyrazolo[4,3-c]pyridin-5-yl)pyridin-3-yl)acetic acid], the “proportions of neutrophils in the lungs” value in test [1] (relative to vehicle (FIG. 6A)) is reported as “decreased”. Moreover, the “proportions of IL21+ cells in the lungs” value in test [1] (relative to vehicle (FIG. 6B)) was “decreased”. Further, the “percentage of eosinophils within the lung” value in test [2] (relative to vehicle control (FIG. 4A)) and in test [4] (relative to vehicle control (FIG. 5A)) was “reduced” each time. Moreover, the “concentrations of anti-OVA IgE antibodies in the serum” value in test [2] (relative to vehicle control (FIG. 4B)) is listed as “reducing”. Moreover, in test [3] (16 weeks high fat diet (FIG. 7A)), the blood glucose level result is reported as “reduced”. The “body weight normalized liver weight” value in test [3] (16 weeks high fat diet, compared to vehicle (FIG. 7B)) is listed as “reduced”. For the same molecule, in test [4] (relative to vehicle control (FIG. 5B)), the “percentage of neutrophils within the lung” value is on record as “reduced”.

For the molecule `O=C(O)Cc1cncc(N2CCc3nn(-c4cc(F)cc(F)c4)cc3C2=O)c1` [LABP-72-4], in the test on CD4+ T cells, the “production of TNFα / percentage of TNFα+ CD4+ T cells” value was “significantly reducing” and the “production of IFNγ / percentage of IFNγ+ CD4+ T cells” value is given as “significantly reducing”.
